Measurements published in EP1487840B1 (Pfizer Italia S.r.l., priority 2002, dated 2003).
Structures can show the parent of a compound that is named as a salt.

Tests used:
physchem = details: thermodynamic from solid, room temperature; for solubility thermodynamic at 24 h: Irinotecan hydrocholoride concentration; for solubility: no time given
Description: (§1) The pH is adjusted to the final value with NaOH 1N). An excess solid was put in glass flasks in the presence of the appropriate dissolution media and the suspensions were shaken at room temperature for 24 hours. Samples were withdrawn after 15, 30, 45, 60 min and 24 hours, filtered and analyzed by means of HPLC assay.

[1] = pH 1.2
Description: as §1

[2] = relative to CPT-11; cited from earlier work

SMILES: CCc1c2c(nc3ccc(OC(=O)N4CCC(N5CCCCC5)CC4)cc13)-c1cc3c(c(=O)n1C2)COC(=O)[C@]3(O)CC [Form b, (S) -4,11-Diethyl-3,4,12,14-tetrahydro-4-hydroxy-3,14-dioxo-1 H-pyrano[3',4':6,7]-indolizino[1,2-b]quinolin-9-yl[1,4'-bipiperidine]-1'-carboxylate hydrochloride]
- solubility thermodynamic at 24 h (physchem; deionized water, water, a = deionized water): 11200 µg/mL
- solubility (physchem; deionized water, water, Water solubility, in water): ~10000 µg/mL
- solubility (physchem; lactic acid buffer of CAMPTOSAR INJECTION, pH 3.5, aqueous buffer, solubility): 10000 µg/mL
- solubility thermodynamic at 24 h (physchem; pH 1.2 buffer, pH 1.2, simulated gastric fluid, b = pH 1.2 buffer): 260 µg/mL
- solubility thermodynamic (physchem; pH 3.5, aqueous buffer, equilibrium solubility, pH value of about 3.5): < 20000 µg/mL

SMILES: CCc1c2c(nc3ccc(OC(=O)N4CCC(N5CCCCC5)CC4)cc13)-c1cc3c(c(=O)n1C2)COC(=O)[C@]3(O)CC [Form c, (S)-4,11-Diethyl-3,4,12,14-tetrahydro-4-hydroxy-3,14=dioxo-1 H-pyrano[3',4':6,7]-indolizino[1,2-b]quinolin-9-yl [1,4'-bipiperidine]-1'-carboxylate (irinotecan) hydrochloride]
- more soluble with respect to Form b [1]: 2 orders of magnitude

SMILES: CCc1c2c(nc3ccc(O)cc13)-c1cc3c(c(=O)n1C2)COC(=O)[C@]3(O)CC [SN-38, 7-ethyl-10-hydroxy 20 (S) camptothecin]
- more cytotoxic than CPT-11 [2]: 100 fold
